Data published in patent publication US12077503B2, “Substituted cyclic amides and their use as herbicides” (FMC CORPORATION, priority 2015, dated 2024).

Tests used:
Type in all cases: in vivo
Kochia (Kochia scoparia) [1] = experiment: Test A preemergence; conditions: for Plant response rating, Kochia: 125 g ai/ha; for Kochia plant response rating (0 to 100 scale, 0 is no effect, 100 is complete control): 500 g ai/ha, visual injury approx. 10 d
In short: (§1)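 Seeds sprayed preemergence with a directed soil spray, or plants at 2 to 10 cm height and one- to two-leaf stage sprayed postemergence, with test chemicals in a non-phytotoxic solvent mixture containing surfactant, in loam soil–sand blend. Injury rated visually against untreated controls after about 10 d in greenhouse, 0 (no effect) to 100 (complete control).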

[2] = test system: barnyardgrass (Echinochloa crus-galli); experiment: Test A preemergence; conditions: for Plant response rating, Barnyardgrass: 125 g ai/ha; for Barnyardgrass plant response rating (0 to 100 scale, 0 is no effect, 100 is complete control): 500 g ai/ha, visual injury approx. 10 d
In short: as §1

[3] = test system: giant foxtail (Setaria faberii); experiment: Test A preemergence; conditions: for Plant response rating, Foxtail, Giant: 125 g ai/ha; for Foxtail, Giant plant response rating (0 to 100 scale, 0 is no effect, 100 is complete control): 500 g ai/ha, visual injury approx. 10 d
In short: as §1

[4] = test system: pigweed (Amaranthus retroflexus); experiment: Test A preemergence; conditions: for Plant response rating, Pigweed: 125 g ai/ha; for Pigweed plant response rating (0 to 100 scale, 0 is no effect, 100 is complete control): 500 g ai/ha, visual injury approx. 10 d
[5] = test system: ragweed (common ragweed, Ambrosia elatior); experiment: Test A preemergence; conditions: for Plant response rating, Ragweed: 125 g ai/ha; for Ragweed plant response rating (0 to 100 scale, 0 is no effect, 100 is complete control): 500 g ai/ha, visual injury approx. 10 d
In short: as §1

[6] = test system: ryegrass, Italian (Italian ryegrass, Lolium multiflorum); experiment: Test A preemergence; conditions: for Plant response rating, Ryegrass, Italian: 125 g ai/ha; for Ryegrass, Italian plant response rating (0 to 100 scale, 0 is no effect, 100 is complete control): 500 g ai/ha, visual injury approx. 10 d
In short: as §1

[7] = test system: Galium (catchweed bedstraw, Galium aparine); experiment: Test A postemergence; conditions: for Galium plant response rating: 125 g ai/ha, visual injury rating on 0 to 100 scale (0 no effect, 100 complete control), approx. 10 d; for Plant response rating, Galium: 500 g ai/ha
In short: as §1

Kochia (Kochia scoparia) [8] = experiment: Test A postemergence; conditions: for Kochia plant response rating: 125 g ai/ha, visual injury rating on 0 to 100 scale (0 no effect, 100 complete control), approx. 10 d; for Plant response rating, Kochia: 500 g ai/ha
In short: as §1

[9] = test system: barnyardgrass (Echinochloa crus-galli); experiment: Test A postemergence; conditions: for Barnyardgrass plant response rating: 125 g ai/ha, visual injury rating on 0 to 100 scale (0 no effect, 100 complete control), approx. 10 d; for Plant response rating, Barnyardgrass: 500 g ai/ha
In short: as §1

[10] = test system: blackgrass (Alopecurus myosuroides); experiment: Test A postemergence; conditions: for Blackgrass plant response rating: 125 g ai/ha, visual injury rating on 0 to 100 scale (0 no effect, 100 complete control), approx. 10 d; for Plant response rating, Blackgrass: 500 g ai/ha
In short: as §1

corn (Zea mays) = experiment: Test A postemergence; conditions: for Corn plant response rating: 125 g ai/ha, visual injury rating on 0 to 100 scale (0 no effect, 100 complete control), approx. 10 d; for Plant response rating, Corn: 500 g ai/ha
In short: as §1

[11] = test system: giant foxtail (Setaria faberii); experiment: Test A postemergence; conditions: for Foxtail, Giant plant response rating: 125 g ai/ha, visual injury rating on 0 to 100 scale (0 no effect, 100 complete control), approx. 10 d; for Plant response rating, Foxtail, Giant: 500 g ai/ha
In short: as §1

[12] = test system: pigweed (Amaranthus retroflexus); experiment: Test A postemergence; conditions: for Pigweed plant response rating: 125 g ai/ha, visual injury rating on 0 to 100 scale (0 no effect, 100 complete control), approx. 10 d; for Plant response rating, Pigweed: 500 g ai/ha
In short: as §1

[13] = test system: ragweed (common ragweed, Ambrosia elatior); experiment: Test A postemergence; conditions: for Ragweed plant response rating: 125 g ai/ha, visual injury rating on 0 to 100 scale (0 no effect, 100 complete control), approx. 10 d; for Plant response rating, Ragweed: 500 g ai/ha
In short: as §1

[14] = test system: ryegrass, Italian (Italian ryegrass, Lolium multiflorum); experiment: Test A postemergence; conditions: for Ryegrass, Italian plant response rating: 125 g ai/ha, visual injury rating on 0 to 100 scale (0 no effect, 100 complete control), approx. 10 d; for Plant response rating, Ryegrass, Italian: 500 g ai/ha
In short: as §1

[15] = test system: wheat (Triticum aestivum); experiment: Test A postemergence; conditions: for Wheat plant response rating: 125 g ai/ha, visual injury rating on 0 to 100 scale (0 no effect, 100 complete control), approx. 10 d; for Plant response rating, Wheat: 500 g ai/ha
In short: as §1

[16] = test system: barnyardgrass (Echinochloa crus-galli); experiment: Test B flooded paddy test; conditions: Flood, 0 to 100 scale where 0 is no effect and 100 is complete control, 13 to 15 d
In short: (§2)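 Flooding to 3 cm over soil accompanied treatment, which consisted of adding compound to the standing water around 2-leaf plants; depth was then maintained. Visual assessment versus controls followed at 13 to 15 d (scale 0–100, 0 meaning no effect).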

[17] = test system: ducksalad (Heteranthera limosa); experiment: Test B flooded paddy test; conditions: Flood, 0 to 100 scale where 0 is no effect and 100 is complete control, 13 to 15 d
In short: as §2

rice (Oryra sativa) = experiment: Test B flooded paddy test; conditions: Flood, 0 to 100 scale where 0 is no effect and 100 is complete control, 13 to 15 d
In short: as §2

[18] = test system: sedge, umbrella (small-flower umbrella sedge, Cyperus difformis); experiment: Test B flooded paddy test; conditions: Flood, 0 to 100 scale where 0 is no effect and 100 is complete control, 13 to 15 d
In short: as §2

[19] = preemergence, 0 to 100 scale (0 no effect, 100 complete control)
[20] = postemergence, 0 to 100 scale, 0 no effect, 100 complete control
[21] = Preemergence, visual injury after approximately 10 d, 0 to 100 scale where 0 is no effect and 100 is complete control
[22] = Postemergence, 0 to 100 scale where 0 is no effect and 100 is complete control

| SMILES | Plant response rating, Kochia (Kochia (Kochia scoparia) [1]; [19]) | Kochia plant response rating (0 to 100 scale, 0 is no effect, 100 is complete control) (Kochia (Kochia scoparia) [1]; Preemergence) | Plant response rating, Barnyardgrass [2, 19] | Barnyardgrass plant response rating (0 to 100 scale, 0 is no effect, 100 is complete control) ([2]; Preemergence) | Plant response rating, Foxtail, Giant [3, 19] | Foxtail, Giant plant response rating (0 to 100 scale, 0 is no effect, 100 is complete control) ([3]; Preemergence) | Plant response rating, Pigweed [4, 19] | Pigweed plant response rating (0 to 100 scale, 0 is no effect, 100 is complete control) ([4]; Preemergence) | Ragweed plant response rating (0 to 100 scale, 0 is no effect, 100 is complete control) ([5]; Preemergence) | Ryegrass, Italian plant response rating (0 to 100 scale, 0 is no effect, 100 is complete control) ([6]; Preemergence) | Galium plant response rating ([7]; postemergence) | Kochia plant response rating (Kochia (Kochia scoparia) [8]; postemergence) | Barnyardgrass plant response rating ([9]; postemergence) | Blackgrass plant response rating ([10]; postemergence) | Corn plant response rating (corn (Zea mays); postemergence) | Foxtail, Giant plant response rating ([11]; postemergence) | Pigweed plant response rating ([12]; postemergence) | Ragweed plant response rating ([13]; postemergence) | Ryegrass, Italian plant response rating ([14]; postemergence) | Wheat plant response rating ([15]; postemergence) | other results |
| --- | --- | --- | --- | --- | --- | --- | --- | --- | --- | --- | --- | --- | --- | --- | --- | --- | --- | --- | --- | --- | --- |
| O=C1NCC(c2cccc(OC(F)F)c2)C1C(=O)Nc1cccc(OC(F)F)c1 (stereo not drawn) [Compound 422] | 0 | 0 | 40 | 70 | 60 | 70 | 20 | 30 | 0 | 0 | 30 | 50 | 50 | 30 | 0 | 50 | 40 | 0 | 0 | 0 | Plant response rating, Ragweed [5, 19]: 0; Plant response rating, Ryegrass, Italian [6, 19]: 0; Plant response rating, Galium [7, 20]: 70; Plant response rating, Kochia (Kochia (Kochia scoparia) [8]; [20]): 60; Plant response rating, Barnyardgrass [9, 20]: 60; Plant response rating, Blackgrass [10, 20]: 50; Plant response rating, Corn (corn (Zea mays); [20]): 0; Plant response rating, Foxtail, Giant [11, 20]: 60; Plant response rating, Pigweed [12, 20]: 60; Plant response rating, Ragweed [13, 20]: 0; Plant response rating, Ryegrass, Italian [14, 20]: 0; Plant response rating, Wheat [15, 20]: 0; Plant response rating, Barnyardgrass ([16]; 500 g ai/ha): 0; Plant response rating, Ducksalad ([17]; 500 g ai/ha): 50; Plant response rating, Rice (rice (Oryra sativa); 500 g ai/ha): 0; Plant response rating, Sedge, Umbrella ([18]; 500 g ai/ha): 0 |
| Cc1cc(C2CN(C)C(=O)C2C(=O)Nc2cccc(F)c2F)ccc1F (stereo not drawn) [Compound 403] | 70 | 80 | 90 | 90 | 90 | 90 | 30 | 60 | 60 | 70 | 50 | 40 | 90 | 50 | 70 | 90 | 50 | 0 | 50 | 70 | Plant response rating, Ragweed [5, 19]: 50; Plant response rating, Ryegrass, Italian [6, 19]: 20; Plant response rating, Galium [7, 20]: 60; Plant response rating, Kochia (Kochia (Kochia scoparia) [8]; [20]): 60; Plant response rating, Barnyardgrass [9, 20]: 90; Plant response rating, Blackgrass [10, 20]: 60; Plant response rating, Corn (corn (Zea mays); [20]): 90; Plant response rating, Foxtail, Giant [11, 20]: 90; Plant response rating, Pigweed [12, 20]: 50; Plant response rating, Ragweed [13, 20]: 30; Plant response rating, Ryegrass, Italian [14, 20]: 70; Plant response rating, Wheat [15, 20]: 80; Plant response rating, Barnyardgrass ([16]; 250 g ai/ha): 75; Plant response rating, Ducksalad ([17]; 250 g ai/ha): 100; Plant response rating, Rice (rice (Oryra sativa); 250 g ai/ha): 0; Plant response rating, Sedge, Umbrella ([18]; 250 g ai/ha): 0 |
| O=C1NCC(c2cccc(OC(F)F)c2)C1C(=O)Nc1ccccc1OC(F)F (stereo not drawn) [Compound 427] | 30 | 80 | 40 | 90 | 90 | 90 | 0 | 40 | 40 | 30 | 40 | 0 | 60 | 20 | 0 | 50 | 0 | 0 | 0 | 0 | Plant response rating, Ragweed [5, 19]: 0; Plant response rating, Ryegrass, Italian [6, 19]: 0; Plant response rating, Galium [7, 20]: 50; Plant response rating, Kochia (Kochia (Kochia scoparia) [8]; [20]): 20; Plant response rating, Barnyardgrass [9, 20]: 80; Plant response rating, Blackgrass [10, 20]: 40; Plant response rating, Corn (corn (Zea mays); [20]): 20; Plant response rating, Foxtail, Giant [11, 20]: 80; Plant response rating, Pigweed [12, 20]: 0; Plant response rating, Ragweed [13, 20]: 20; Plant response rating, Ryegrass, Italian [14, 20]: 20; Plant response rating, Wheat [15, 20]: 20; Plant response rating, Barnyardgrass ([16]; 500 g ai/ha): 40; Plant response rating, Ducksalad ([17]; 500 g ai/ha): 100; Plant response rating, Rice (rice (Oryra sativa); 500 g ai/ha): 0; Plant response rating, Sedge, Umbrella ([18]; 500 g ai/ha): 0 |
| COCc1cccc(C2CNC(=O)C2C(=O)Nc2ccc(F)cc2F)c1 (stereo not drawn) [Compound 499] | – | 30 | – | 90 | – | 90 | – | 0 | 0 | 0 | 0 | 0 | 30 | 0 | 0 | 20 | 0 | 0 | 0 | 0 | Plant response rating, Kochia (Kochia (Kochia scoparia) [1]; [21]): 0; Plant response rating, Barnyardgrass [2, 21]: 30; Plant response rating, Foxtail, Giant [3, 21]: 30; Plant response rating, Pigweed [4, 21]: 0; Plant response rating, Ragweed [5, 21]: 0; Plant response rating, Ryegrass, Italian [6, 21]: 0; Plant response rating, Galium [7, 22]: 40; Plant response rating, Kochia (Kochia (Kochia scoparia) [8]; [22]): 0; Plant response rating, Barnyardgrass [9, 22]: 80; Plant response rating, Blackgrass [10, 22]: 0; Plant response rating, Corn (corn (Zea mays); [22]): 0; Plant response rating, Foxtail, Giant [11, 22]: 30; Plant response rating, Pigweed [12, 22]: 0; Plant response rating, Ragweed [13, 22]: 0; Plant response rating, Ryegrass, Italian [14, 22]: 0; Plant response rating, Wheat [15, 22]: 0; Plant response rating, Barnyardgrass ([16]; 250 g ai/ha): 50; Plant response rating, Ducksalad ([17]; 250 g ai/ha): 80; Plant response rating, Rice (rice (Oryra sativa); 250 g ai/ha): 15; Plant response rating, Sedge, Umbrella ([18]; 250 g ai/ha): 0 |
